In patent US9522888B2, “Substituted bicyclic compounds” (BRISTOL-MYERS SQUIBB COMPANY, priority 2014, dated 2016):

Tests used:
hS1P1/CHO cells = hS1P1/CHO cells (Homo sapiens (Human), UniProt P21453); test: hS1P1 ERK phosphorylation (S1P1 pERK); assay type: cell-based; details: phosphate examples
Summary of the method: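 CHO cells expressing human S1P1, serum-starved 2 h, exposed to compound in HBSS/20 mM HEPES for 7 min at 37° C. Lysates assayed for phospho-ERK by SureFire kit; response given as % activation relative to 10 μM S1P.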

human S1P1 = human S1P1 (Homo sapiens (Human), UniProt P21453); test: S1P1 binding assay (33P-S1P radioligand competition, CHO cell membranes); details: phosphate examples; read-out: S1P1 Binding
Chain of human S1P1 (P21453 whole entry): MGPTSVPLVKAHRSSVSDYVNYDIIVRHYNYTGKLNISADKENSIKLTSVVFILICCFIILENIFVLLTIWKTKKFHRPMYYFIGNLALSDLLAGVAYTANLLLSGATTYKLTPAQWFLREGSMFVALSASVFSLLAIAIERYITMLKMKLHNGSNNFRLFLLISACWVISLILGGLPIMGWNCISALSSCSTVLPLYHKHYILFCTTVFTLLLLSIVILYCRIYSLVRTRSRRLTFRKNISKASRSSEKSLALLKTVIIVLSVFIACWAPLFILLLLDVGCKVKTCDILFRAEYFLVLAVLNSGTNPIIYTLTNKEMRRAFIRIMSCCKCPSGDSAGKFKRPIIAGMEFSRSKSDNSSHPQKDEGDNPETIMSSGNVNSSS
Summary of the method: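 Radioligand is 33P-S1P, competing for membranes from human S1P1-expressing CHO cells. Membranes resuspended in 50 mM HEPES pH 7.5, 100 mM NaCl, 1 mM MgCl2, 2 mM EDTA.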

[1] = target: S1P3 (membranes prepared from EDG3-Gal5-bla HEK293T cells) (Homo sapiens (Human), UniProt Q99500); test: Receptor [35S] GTPγS binding assay (S1P3 GTPγS); assay type: biochemical; details: phosphate examples; read-out: S1P3 GTPγS
Chain of S1P3 (membranes prepared from EDG3-Gal5-bla HEK293T cells) (Q99500 whole entry): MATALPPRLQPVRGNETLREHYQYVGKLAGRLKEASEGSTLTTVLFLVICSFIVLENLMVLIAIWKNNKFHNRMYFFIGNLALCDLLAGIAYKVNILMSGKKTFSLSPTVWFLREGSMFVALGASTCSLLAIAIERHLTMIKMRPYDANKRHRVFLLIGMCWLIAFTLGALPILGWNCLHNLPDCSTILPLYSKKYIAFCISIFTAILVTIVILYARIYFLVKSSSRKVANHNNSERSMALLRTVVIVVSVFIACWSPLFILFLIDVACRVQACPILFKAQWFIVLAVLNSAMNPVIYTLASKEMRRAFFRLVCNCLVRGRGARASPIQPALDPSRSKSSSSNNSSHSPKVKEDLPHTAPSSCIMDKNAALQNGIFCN
Summary of the method: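 Membranes (3 μg protein/well) from S1P1/CHO cells or EDG3-Gal5-bla HEK293T cells (S1P3) were incubated 45 min at room temperature with 0.2 nM final [35S]GTPγS in HEPES pH 7.5 buffer with 10 μM GDP, MgCl2 and saponin. Bound label counted after filtration; EC50 from 11-point, 3-fold dilutions.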

[2] = target: S1P1 (membranes prepared from S1P1/CHO cells) (Homo sapiens (Human), UniProt P21453); test: Receptor [35S] GTPγS binding assay (S1P1 GTPγS); assay type: biochemical; details: phosphate examples; read-out: S1P1 GTPγS
Chain of S1P1 (membranes prepared from S1P1/CHO cells) (P21453 whole entry): as the sequence (P21453 whole entry) above
Summary of the method: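 Membranes from S1P1-expressing CHO cells (3 μg protein/well) incubated with compound (11-point, 3-fold dilution) and 0.2 nM final [35S]GTPγS, 45 min at room temperature. Assay buffer: 20 mM HEPES pH 7.5, 10 mM MgCl2, 150 mM NaCl, 10 μM GDP, 0.1% fatty-acid-free BSA, 10 μg/ml saponin. Filter-bound radioactivity counted by scintillation; EC50 derived.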

Chain of hS1P1/CHO cells (P21453 whole entry): as above

| EC50 (hS1P1/CHO cells) [µM] | IC50 (human S1P1) [µM] | EC50 [1] [µM] | EC50 [2] [µM] | Structure (SMILES) |
| --- | --- | --- | --- | --- |
| < 0.01 | < 0.01 | > 0.625 | < 0.01 | CCCCSC[C@@H]1CCc2cc([C@@H]3CC[C@](N)(COP(=O)(O)O)C3)ccc2C1 [compound 506] |
| 0.01 to 0.1 | 0.1 to 1 | > 0.625 | 0.1 to 1 | N[C@]1(COP(=O)(O)O)CC[C@@H](c2ccc3c(c2)CC[C@H](CSc2ccccc2)C3)C1 [compound 507] |
| 0.01 to 0.1 | 0.01 to 0.1 | > 0.625 | 0.1 to 1 | N[C@]1(COP(=O)(O)O)CC[C@@H](c2ccc3c(c2)CC[C@@H](CSc2ccccc2)C3)C1 [compound 508] |
| < 0.01 | 0.01 to 0.1 | > 0.625 | 0.01 to 0.1 | CC(C)CSC[C@H]1CCc2cc([C@H]3CC[C@](N)(COP(=O)(O)O)C3)ccc2C1 [compound 509] |
| < 0.01 | < 0.01 | > 0.625 | 0.01 to 0.1 | CC(C)CCSC[C@@H]1CCc2cc([C@H]3CC[C@](N)(COP(=O)(O)O)C3)ccc2C1 [compound 510] |
| < 0.01 | < 0.01 | > 0.625 | 0.01 to 0.1 | CC(C)CCSC[C@H]1CCc2cc([C@H]3CC[C@](N)(COP(=O)(O)O)C3)ccc2C1 [compound 511] |
| 0.01 to 0.1 | < 0.01 | > 0.625 | < 0.01 | CCCCCSC[C@H]1CCc2cc([C@H]3CC[C@](N)(COP(=O)(O)O)C3)ccc2C1 [compound 512] |
| < 0.01 | < 0.01 | > 0.625 | 0.01 to 0.1 | CCCCCSC[C@@H]1CCc2cc([C@H]3CC[C@](N)(COP(=O)(O)O)C3)ccc2C1 [compound 513] |
| 0.01 to 0.1 | < 0.01 | > 0.625 | 0.01 to 0.1 | CC(C)(C)CSC[C@H]1CCc2cc([C@H]3CC[C@](N)(COP(=O)(O)O)C3)ccc2C1 [compound 514] |
| < 0.01 | 0.01 to 0.1 | > 0.625 | 0.01 to 0.1 | CC(C)(C)CSC[C@@H]1CCc2cc([C@H]3CC[C@](N)(COP(=O)(O)O)C3)ccc2C1 [compound 515] |
| < 0.01 | 0.01 to 0.1 | > 0.625 | 0.01 to 0.1 | N[C@]1(COP(=O)(O)O)CC[C@H](c2ccc3c(c2)CC[C@@H](CSc2cccnc2)C3)C1 [compound 516] |
| < 0.01 | 0.01 to 0.1 | > 0.625 | 0.01 to 0.1 | N[C@]1(COP(=O)(O)O)CC[C@H](c2ccc3c(c2)CC[C@@H](CSc2ccncc2)C3)C1 [compound 517] |
| < 0.01 | < 0.01 | > 0.625 | < 0.01 | CC(C)(C)CCSC[C@H]1CCc2cc([C@H]3CC[C@](N)(COP(=O)(O)O)C3)ccc2C1 [compound 518] |
| < 0.01 | < 0.01 | > 0.625 | < 0.01 | CC(C)(C)CCSC[C@@H]1CCc2cc([C@H]3CC[C@](N)(COP(=O)(O)O)C3)ccc2C1 [compound 519] |
| 0.01 to 0.1 | 0.01 to 0.1 | > 0.625 | 0.01 to 0.1 | Cc1ccccc1SC[C@@H]1CCc2cc([C@H]3CC[C@](N)(COP(=O)(O)O)C3)ccc2C1 [compound 520] |
| 0.01 to 0.1 | < 0.01 | > 0.05 | < 0.01 | N[C@]1(COP(=O)(O)O)CC[C@H](c2ccc3c(c2)CC[C@H](CSCCc2ccccc2)C3)C1 [compound 521] |
| 0.01 to 0.1 | < 0.01 | > 0.625 | 0.01 to 0.1 | N[C@]1(COP(=O)(O)O)CC[C@H](c2ccc3c(c2)CC[C@@H](CSCCc2ccccc2)C3)C1 [compound 522] |
| 0.01 to 0.1 | 0.01 to 0.1 | > 0.625 | 0.1 to 1 | Cc1cccc(C)c1SC[C@@H]1CCc2cc([C@H]3CC[C@](N)(COP(=O)(O)O)C3)ccc2C1 [compound 523] |
| < 0.01 | 0.01 to 0.1 | > 0.625 | < 0.01 | N[C@]1(COP(=O)(O)O)CC[C@H](c2ccc3c(c2)CC[C@@H](CSCCc2ccccn2)C3)C1 [compound 524] |
